What was measured:
Format in all cases: in vivo
[1] = tested on: Echinochloa crus-galli var. formosensis; assay: Test Example 6: herbicidal effect test by application during growth period of paddy rice (low dose); details: 7.5 g per 10 ares, applied seven days after sowing, flooded pots, 14 days after application; for inhibition at 75 g/ha: Echinochloa crus-galli, read-out: weed inhibition rate
Summary of the method: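 Emulsifiable concentrate, water-diluted, dropped onto flooded paddy pots 7 days post-sowing at 7.5 g active ingredient/10 a. Greenhouse-grown weeds; percent inhibition scored at day 14 after treatment.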

[2] = tested on: Echinochloa crus-galli var. formosensis; assay: Test Example 5: herbicidal effect test by soil application in paddy rice (low dose); details: 7.5 g per 10 ares, applied immediately after sowing, flooded pots, 14 days after application; for inhibition at 75 g/ha: Echinochloa crus-galli, soil, 336 h, read-out: weed inhibition rate
Summary of the method: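 Pots of puddled, fertilized paddy soil receive 30 seeds per species at 0–1 cm depth and are flooded to about 3 cm. The diluted emulsifiable concentrate is then dropped onto the water, delivering 7.5 g active ingredient per 10 ares. Greenhouse grown; herbicidal effect scored 14 days later, two replicates.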

[3] = tested on: Echinochloa crus-galli var. formosensis; assay: Test Example 1: herbicidal effect test by soil application in paddy rice; details: 120 g active ingredient per 10 ares, applied immediately after sowing, flooded pots, 14 days after application; for pest or weed control at 1200 g/ha: Echinochloa crus-galli, soil, 336 h, read-out: weed inhibition rate
Summary of the method: (§1)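 Pre-emergence paddy treatment: diluted emulsifiable concentrate applied by dropper at 120 g a.i./10 ares immediately after sowing. Seeds (30 per species, 0–1 cm deep) in fertilized, puddled paddy soil kept under ~3 cm flood in a glass greenhouse.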

Scirpus juncoides [4] = assay: as above; details: 120 g active ingredient per 10 ares, applied immediately after sowing, flooded pots, 14 days after application; for pest or weed control at 1200 g/ha: Schoenoplectiella juncoides, soil, 336 h, read-out: weed inhibition rate
Summary of the method: as §1

[5] = tested on: Echinochloa crus-galli var. formosensis; assay: Test Example 2: herbicidal effect test by application during growth period of paddy rice; details: 120 g per 10 ares, applied seven days after sowing, flooded pots, 14 days after application; for inhibition at 1200 g/ha: Echinochloa crus-galli, read-out: weed inhibition rate
Summary of the method: (§2)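 Weeds sown into puddled, flooded paddy soil received a post-emergence water application of emulsifiable concentrate at 120 g active ingredient per 10 ares, seven days after sowing. Herbicidal effect was rated 14 days later as inhibition (%).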

Scirpus juncoides [6] = assay: as above; details: 120 g per 10 ares, applied seven days after sowing, flooded pots, 14 days after application; for inhibition at 1200 g/ha: Schoenoplectiella juncoides, read-out: weed inhibition rate
Summary of the method: as §2

Monochoria vaginalis [7] = assay: as above; details: 120 g per 10 ares, applied seven days after sowing, flooded pots, 14 days after application; for inhibition at 1200 g/ha: Pontederia vaginalis, read-out: weed inhibition rate
Summary of the method: as §2

Digitaria ciliaris [8] = assay: Test Example 3: herbicidal effect test by soil application in upland field; details: 120 g per 10 ares, sprayed one day after sowing, 14 days after application; for inhibition at 1200 g/ha: Digitaria ciliaris, read-out: weed inhibition rate
Summary of the method: (§3)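 Weed inhibition (%) was assessed 14 days after treatment, in duplicate per concentration group. Seeds had been mixed into the upper 1 cm of upland alluvial loam, and the soil surface was sprayed one day later with the diluted emulsifiable concentrate at 120 g active ingredient per 10 ares.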

Echinochloa crus-galli [9] = assay: as above; details: 120 g per 10 ares, sprayed one day after sowing, 14 days after application; for inhibition at 1200 g/ha: Echinochloa crus-galli, read-out: weed inhibition rate
Summary of the method: as §3

Echinochloa crus-galli [10] = assay: Test Example 4: herbicidal effect test by stem and leaf treatment in upland field; details: 120 g per 10 ares, sprayed seven days after sowing, upland soil, 14 days after application; for inhibition at 1200 g/ha: Echinochloa crus-galli, read-out: weed inhibition rate
Digitaria ciliaris [11] = assay: as above; details: 120 g per 10 ares, sprayed seven days after sowing, upland soil, 14 days after application; for inhibition at 1200 g/ha: Digitaria ciliaris, read-out: weed inhibition rate
Monochoria vaginalis [12] = assay: Test Example 1: herbicidal effect test by soil application in paddy rice; details: 120 g active ingredient per 10 ares, applied immediately after sowing, flooded pots, 14 days after application; for pest or weed control at 1200 g/ha: Pontederia vaginalis, soil, 336 h, read-out: weed inhibition rate
Protocol: Wagner pots with an area of […] were filled with paddy soil, followed by addition of water and incorporation of chemical fertilizer (N:P:K = 16:16:16), after which puddling was performed. After that, seeds of Echinochloa crus-galli var. formosensis, broad-leaved weeds (Lindernia pyxidaria and Monochoria vaginalis), and Scirpus juncoides were sown at a depth of 0 cm to 1 cm, 30 seeds each. Immediately after sowing, the pots were flooded and a water depth of approximately 3 cm was maintained. Subsequent management was conducted in a glass greenhouse. Immediately thereafter, an emulsifiable concentrate prepared according to Formulation Example 5 using the compound shown below was diluted with water, and a specified amount of the diluted solution was applied by dropper. The amount of the active ingredient to be applied was equivalent to 120 g per 10 ares.
The present test was conducted in duplicate for each chemical concentration group, and the weed inhibition rate (%) was determined 14 days after chemical application using the following formula (Math. 1). [formula]

Digitaria ciliaris [13] = assay: Test Example 8: herbicidal effect test by stem and leaf treatment in upland field (low dose); details: 7.5 g per 10 ares, sprayed seven days after sowing, upland soil, 14 days after application
Digitaria ciliaris [14] = assay: Test Example 7: herbicidal effect test by soil application in upland field (low dose); details: 7.5 g per 10 ares, sprayed one day after sowing, 14 days after application
Summary of the method: (§4)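 Low-dose soil treatment at 7.5 g a.i. per 10 a, applied as a diluted emulsifiable concentrate sprayed onto the soil surface one day after sowing in upland alluvial loam. Duplicate pots; percent weed inhibition is read 14 days after application.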

Echinochloa crus-galli [15] = assay: as above; details: 7.5 g per 10 ares, sprayed one day after sowing, 14 days after application
Summary of the method: as §4

Echinochloa crus-galli [16] = assay: Test Example 8: herbicidal effect test by stem and leaf treatment in upland field (low dose); details: 7.5 g per 10 ares; sprayed seven days after sowing, upland soil; 14 days after application
[17] = Digitaria ciliaris, read-out: weed inhibition rate

CCC[C@@H]1C[C@]2(C)O[C@@]1(C(C)C)C[C@H]2OCc1ccccc1F [1-914, (1S,2R,4R,5R)-2-[(2-fluorophenyl)methoxy]-1-methyl-4-isopropyl-5-propyl-7-oxabicyclo[2.2.1]heptane]
≥ 80%: inhibition at 75 g/ha [1] | inhibition at 75 g/ha [2] | pest or weed control at 1200 g/ha [3] | pest or weed control at 1200 g/ha (Scirpus juncoides [4]) | inhibition at 1200 g/ha [5] | inhibition at 1200 g/ha (Scirpus juncoides [6]) | inhibition at 1200 g/ha (Monochoria vaginalis [7]) | inhibition at 1200 g/ha (Digitaria ciliaris [8]) | inhibition at 1200 g/ha (Echinochloa crus-galli [9]) | inhibition at 1200 g/ha (Echinochloa crus-galli [10]) | inhibition at 1200 g/ha (Digitaria ciliaris [11]) | pest or weed control at 1200 g/ha (Monochoria vaginalis [12])

CC(C)[C@]12C[C@@H](OCc3ccccc3F)[C@](C)(C=C1c1ccccc1)O2 [3-177, (1R,4S,5R)-5-((2-fluorobenzyl)oxy)-1-isopropyl-4-methyl-2-phenyl-7-oxabicyclo[2.2.1]hept-2-ene]
≥ 80%: inhibition at 75 g/ha [1] | pest or weed control at 1200 g/ha [3] | pest or weed control at 1200 g/ha (Scirpus juncoides [4]) | inhibition at 1200 g/ha [5] | inhibition at 1200 g/ha (Scirpus juncoides [6]) | inhibition at 1200 g/ha (Monochoria vaginalis [7]) | inhibition at 1200 g/ha (Digitaria ciliaris [8]) | inhibition at 1200 g/ha (Echinochloa crus-galli [9]) | inhibition at 1200 g/ha (Echinochloa crus-galli [10]) | inhibition at 1200 g/ha (Digitaria ciliaris [11]) | pest or weed control at 1200 g/ha (Monochoria vaginalis [12])

CC(C)[C@]12C[C@@H](OCc3ccccc3F)[C@](C)(CC13OCCO3)O2 [1-936, (1R,4S,5R)-5-((2-fluorobenzyl)oxy)-1-isopropyl-4-methyl-7-oxaspiro[bicyclo[2.2.1]heptane-2,2'-[1,3]dioxolane]]
≥ 80%: pest or weed control at 1200 g/ha [3] | pest or weed control at 1200 g/ha (Scirpus juncoides [4]) | inhibition at 1200 g/ha [5] | inhibition at 1200 g/ha (Digitaria ciliaris [8]) | inhibition at 1200 g/ha (Echinochloa crus-galli [9]) | inhibition at 1200 g/ha (Echinochloa crus-galli [10]) | pest or weed control at 1200 g/ha (Monochoria vaginalis [12])

CC(C)[C@]12C[C@@H](OCc3ccccc3)[C@](C)(CC1=O)O2 [2-1, (1R,4S,5R)-5-(benzyloxy)-1-isopropyl-4-methyl-7-oxabicyclo[2.2.1]heptan-2-one]
≥ 80%: pest or weed control at 1200 g/ha [3] | inhibition at 1200 g/ha [5] | inhibition at 1200 g/ha (Monochoria vaginalis [7]) | inhibition at 1200 g/ha (Digitaria ciliaris [8]) | inhibition at 1200 g/ha (Echinochloa crus-galli [9]) | inhibition at 1200 g/ha (Echinochloa crus-galli [10]) | inhibition at 1200 g/ha (Digitaria ciliaris [11]) | pest or weed control at 1200 g/ha (Monochoria vaginalis [12])

CC(C)[C@]12C[C@@H](OCc3ccccc3F)[C@](C)(CC1CCc1ccccc1)O2 (stereo partly drawn) [1-929, (1S,2R,4R)-2-((2-fluorobenzyl)oxy)-4-isopropyl-1-methyl-5-phenethyl-7-oxabicyclo[2.2.1]heptane]
≥ 80%: inhibition at 75 g/ha [1] | inhibition at 75 g/ha [2] | pest or weed control at 1200 g/ha [3] | pest or weed control at 1200 g/ha (Scirpus juncoides [4]) | inhibition at 1200 g/ha [5] | inhibition at 1200 g/ha (Monochoria vaginalis [7]) | inhibition at 1200 g/ha (Digitaria ciliaris [8]) | inhibition at 1200 g/ha (Echinochloa crus-galli [9]) | inhibition at 1200 g/ha (Echinochloa crus-galli [10]) | inhibition at 75 g/ha (Digitaria ciliaris [13]; [17]) | inhibition at 1200 g/ha (Digitaria ciliaris [11]) | pest or weed control at 1200 g/ha (Monochoria vaginalis [12])

CC(C)[C@]12C[C@@H](OCc3ccccc3F)[C@](C)(CC1C1CCCC1)O2 (stereo partly drawn) [1-920, (1R,4S,5R)-2-cyclopentyl-5-[(2-fluorobenzyl)oxy]-1-isopropyl-4-methyl-7-oxabicyclo[2.2.1]heptane]
≥ 80%: inhibition at 75 g/ha [1] | inhibition at 75 g/ha [2] | pest or weed control at 1200 g/ha [3] | pest or weed control at 1200 g/ha (Scirpus juncoides [4]) | inhibition at 1200 g/ha [5] | inhibition at 1200 g/ha (Scirpus juncoides [6]) | inhibition at 1200 g/ha (Monochoria vaginalis [7]) | inhibition at 1200 g/ha (Echinochloa crus-galli [10]) | inhibition at 1200 g/ha (Digitaria ciliaris [11]) | pest or weed control at 1200 g/ha (Monochoria vaginalis [12])

CC(C)[C@]12C[C@@H](OCc3ccccc3C#N)[C@](C)(CC1=O)O2 [2-354, 2-((((1S,2R,4R)-4-isopropyl-1-methyl-5-oxo-7-oxabicyclo[2.2.1]heptan-2-yl)oxy)methyl)benzonitrile]
≥ 80%: inhibition at 75 g/ha [1] | inhibition at 75 g/ha [2] | pest or weed control at 1200 g/ha [3] | pest or weed control at 1200 g/ha (Scirpus juncoides [4]) | inhibition at 1200 g/ha [5] | inhibition at 1200 g/ha (Scirpus juncoides [6]) | inhibition at 1200 g/ha (Digitaria ciliaris [8]) | inhibition at 1200 g/ha (Echinochloa crus-galli [9]) | inhibition at 1200 g/ha (Echinochloa crus-galli [10]) | inhibition at 1200 g/ha (Digitaria ciliaris [11]) | pest or weed control at 1200 g/ha (Monochoria vaginalis [12]) | inhibition at 75 g/ha (Digitaria ciliaris [14]; [17]) | inhibition at 75 g/ha (Echinochloa crus-galli [15]; Echinochloa crus-galli, read-out: weed inhibition rate)

Cc1ccccc1CO[C@@H]1C[C@]2(C(C)C)O[C@@]1(C)C=C2c1ccccc1 [3-175, (1R,4S,5R)-1-isopropyl-4-methyl-5-((2-methylbenzyl)oxy)-2-phenyl-7-oxabicyclo[2.2.1]hept-2-ene]
≥ 80%: pest or weed control at 1200 g/ha [3] | inhibition at 1200 g/ha [5] | inhibition at 1200 g/ha (Monochoria vaginalis [7]) | inhibition at 1200 g/ha (Digitaria ciliaris [8]) | inhibition at 1200 g/ha (Echinochloa crus-galli [9]) | inhibition at 1200 g/ha (Echinochloa crus-galli [10]) | inhibition at 1200 g/ha (Digitaria ciliaris [11]) | pest or weed control at 1200 g/ha (Monochoria vaginalis [12])

CC(C)[C@]12C[C@@H](OCc3ccccc3F)[C@](C)(C[C@@H]1Cl)O2 [1-12]
≥ 80%: weed inhibition rate [1] | weed inhibition rate [2] | weed inhibition rate [3] | weed inhibition rate (Scirpus juncoides [4]) | weed inhibition rate [5] | weed inhibition rate (Scirpus juncoides [6]) | weed inhibition rate (Monochoria vaginalis [7]) | weed inhibition rate (Digitaria ciliaris [8]) | weed inhibition rate (Echinochloa crus-galli [9]) | weed inhibition rate (Echinochloa crus-galli [10]) | weed inhibition rate (Digitaria ciliaris [13]) | weed inhibition rate (Echinochloa crus-galli [16]) | weed inhibition rate (Digitaria ciliaris [11]) | weed inhibition rate (Monochoria vaginalis [12]) | weed inhibition rate (Digitaria ciliaris [14]) | weed inhibition rate (Echinochloa crus-galli [15])

Cc1ccccc1CO[C@H]1C[C@]2(C)O[C@@]1(C(C)C)C[C@H]2OCc1ccccc1C [1-597, (1S,2R,4R,5S)-1-methyl-2,5-bis[(2-methylphenyl)methoxy]-4-isopropyl-7-oxabicyclo[2.2.1]heptane]
≥ 80%: pest or weed control at 1200 g/ha [3] | pest or weed control at 1200 g/ha (Scirpus juncoides [4]) | inhibition at 1200 g/ha [5] | inhibition at 1200 g/ha (Scirpus juncoides [6]) | inhibition at 1200 g/ha (Monochoria vaginalis [7]) | inhibition at 1200 g/ha (Echinochloa crus-galli [10]) | inhibition at 1200 g/ha (Digitaria ciliaris [11]) | pest or weed control at 1200 g/ha (Monochoria vaginalis [12])

— patent EP4707280A1, “1,4-CINEOLE DERIVATIVE AND INTERMEDIATE THEREOF, HERBICIDE CONTAINING SAID DERIVATIVE AS ACTIVE INGREDIENT, METHOD FOR USING HERBICIDE, AND METHOD FOR PREPARING AGROCHEMICAL COMPOSITION” (HOKKO CHEMICAL INDUSTRY CO., LTD., priority 2023, dated 2024)
